# Patent publication US20050101671A1, “Compounds and compositions for delivering active agents” (Emisphere Technologies, Inc., priority 1995, published 2005)
# Assays:
# [1] = In vivo delivery of heparin by oral administration in rats, APTT (Table 6); set-up: species or system rat; conditions: heparin 100 mg/kg
# Experimental: In a test tube, 900 mg of carrier were dissolved in 3 mL of propylene glycol, and 0.299 g of sodium heparin was dissolved in 3 mL of water. The solutions were mixed by vortex. Sodium hydroxide (10M) was added to the resulting mixture until a solution was obtained. The pH was then adjusted to 7.4±0.5 with concentrated hydrochloric acid, and the final solution was sonicated at 40° C. for 30 minutes.
# A group of fasted, conscious rats were administered the dosing compositions by oral gavage. Blood samples were collected by cardiac puncture following the administration of ketamine (44 mg/kg). Heparin activity was determined by utilizing the activated partial thromboplastim time (APTT) according to the method of Henry, J. B., Clinical Diagnosis and Management by Laboratory Methods; Philadelphia. Pa.; W B Saunders (1979).
# Heparin (100 mg/kg) was administered by oral gavage to rats, and heparin activity was determined according to the procedure of Example 44.
# [2] = In vivo delivery of rhGH in rats (Table 1), serum rhGH by ELISA; set-up: species or system rat; conditions: oral, no carrier, rhGH 6 mg/kg
# Experimental: Dosing compositions were prepared by mixing the modified amino acids and recombinant human growth hormone (rhGH) as listed in Table 1 below in a phosphate buffer solution at a pH of about 7-8.
# Rats were administered the dosing composition by sublingual, oral gavage, intraduodenal administration, or colonic administration. Delivery was evaluated by using an ELISA assay for rhGH from Medix Biotech, Inc. For intracolonic administration, a sample was prepared and dosed to fasted rats at 25 mg/kg of carrier in a buffered solution containing propylene glycol (0-50%) and 1 mg/kg rhGH.
# [3] = Delivery agent enhancement of rhGH bioavailability, subcutaneous administration in rats (Table 2); assay type: in vivo, rat; conditions: no delivery agent (0.0 mg/kg), rhGH alone (Comparative Example 16A)
# Experimental: The delivery agents were reconstituted with distilled water and adjusted to pH 7.2-8.0 with either aqueous hydrochloric acid or aqueous sodium hydroxide. A stock solution of rhGH was prepared by mixing rhGH, D-mannitol and glycine and dissolving this mixture in 2% glycerol/water. The stock solution was then added to the delivery agent solution. Several delivery agent to active agent ratios were studied.
# Male Sprague-Dawley rats weighing 200-250 g were fasted for 24 hours and administered ketamine (44 mg/kg) and chlorpromazine (1.5 mg/kg) 15 minutes prior to dosing. The rats were administered one of the dosing solutions described above by subcutaneous injection, intranasal instillation, or sublingual instillation. Blood samples were collected serially from the tail artery for serum calcium concentration determination or serum rhGH concentrations. The dose-of rhGH administered in these experiments was 0.
# Serum rhGH concentrations were quantified by an rhGH enzyme immunoassay test kit.
compound,measurement,setting,value
Heparin [reference compound],Mean Peak APTT,[1]; no carrier,20.7 ± 0.17 s
"rhGH: recombinant human growth hormone, active agent dosed alone as comparative example",Mean Peak Serum Levels of rhGH,[2],<10 ± 10 ng/mL
same,Peak Serum [rhGH],[3],4 ± 2 ng/mL
O=C(O)CCCCCCCNC(=O)/C=C/c1ccccc1F [Compound XII],Mean Peak APTT,[1]; carrier 300 mg/kg,49.53 ± 17.1 s
